# Key:
# ER-α = biological target: T1, ER-α (Homo sapiens, UniProt P03372); experiment: Estrogen receptor relative binding affinity assay, fluorescence polarization, ER-α
# T1 construct: purchased Pan Vera, Madison, Wis
# T1 sequence (P03372 1-595): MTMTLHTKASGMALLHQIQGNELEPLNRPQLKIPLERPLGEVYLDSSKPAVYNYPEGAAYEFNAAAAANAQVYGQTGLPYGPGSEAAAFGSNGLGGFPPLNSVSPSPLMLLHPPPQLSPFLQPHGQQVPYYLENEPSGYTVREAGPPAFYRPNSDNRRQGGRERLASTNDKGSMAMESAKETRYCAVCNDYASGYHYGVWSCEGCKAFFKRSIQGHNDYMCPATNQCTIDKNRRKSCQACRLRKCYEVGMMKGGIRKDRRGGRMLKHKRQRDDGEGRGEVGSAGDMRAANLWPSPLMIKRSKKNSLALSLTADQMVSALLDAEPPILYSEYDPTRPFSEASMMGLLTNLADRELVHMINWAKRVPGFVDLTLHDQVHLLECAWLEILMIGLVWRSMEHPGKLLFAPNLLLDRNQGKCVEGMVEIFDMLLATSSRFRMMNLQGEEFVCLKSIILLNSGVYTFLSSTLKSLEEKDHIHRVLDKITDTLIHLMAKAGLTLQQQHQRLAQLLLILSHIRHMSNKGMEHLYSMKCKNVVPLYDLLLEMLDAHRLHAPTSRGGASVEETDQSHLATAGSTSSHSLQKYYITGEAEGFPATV
# Method: All assays were carried out as per the manufacture's instructions with the following modifications.
# MCF-7 = experiment: Cytotoxicity testing (Example 7), MTS, MCF-7; type: cell-based; conditions: Table 3, five days, 1 mM of each compound, defined media
# Method: (§1) Cytotoxicity Studies were done in DU-145 and MCF-7 Cells. […] We set out to test the efficacy of these compounds based on known affinities for ER-α previously reported. Cells were treated for five days with 1 mM of each compound in a defined media. Cell number was estimated by the MTS method. Similar studies were carried out in the MCF-7 cell line known to express both ER-α and -β, and display proliferative properties in the presence of classic estrogens.
# DU145 = experiment: MTS cell viability assay in DU145; type: cell-based
# Method: DU145, LNCaP, PC3, and MCF-7 cells were obtained from the American Type Culture Collection (Manassas, Va.). DU145, PC3, and MCF-7 cells were maintained in Dulbecco's modified Eagle's medium/F-12 supplemented with 5% heat inactivated Fetal Calf Serum and Penicillin/Streptomycin (Invitrogen Life Technologies, Carlsbad, Calif.). LNCaP cells were maintained in RPMI 1640 medium supplemented in the same fashion. Cells were cultured in 75 cm^2 flasks (Falcon, BD Biosciences, Bedford, Mass.) at 37° C. and 5% CO2. For the MTS assay (Example 3), five thousand cells were plated in each well of a 24 well plate (Falcon), were allowed to attach for a 48-hour period in the media described, and changed to a defined medium, (DMEM/F-12 or RPMI1640) supplemented with insulin (BD Biosciences). A 1000× solution of the compound of interest solubilized in DMSO (Sigma, Saint Louis, Mo.) was diluted in the defined media just prior to starting each experiment, and media was refreshed every 48 to 72 hours throughout the experiments.
# . Upon completing five days of treatment, the medium in each well was exchanged for 400 μL of an MTS solution (3-(4,5-dimethylthiazol-2-yl)-5-(3-carboxymethoxyphenyl)-2-(4-sulfophenyl)-2H-tetrazolium, inner salt; O'Toole SA, 2003, Cancer Detect Prev., 2003;27(1):47-54) spiked into media as per the manufacture's instructions (Promega, Madison, Wis.) and incubated for 2 hours at 37° C. before reading the absorbance on the μQuant UV/VIS plate reader, in conjunction with KCjunior Software (Bio-Tek Instruments, Winooski, Vt.) set at 490 nm. All experiments were carried out in quadruplicate, control wells were treated with the carrier DMSO. E2, which is estradiol-17β (Steraloids®, Newport, R.I.) and resveratrol (Sigma) were used as controls. […]
# DU-145 = experiment: Cytotoxicity testing (Example 7), MTS, DU-145; type: cell-based; conditions: Table 3; five days, 1 mM of each compound, defined media, MTS
# Method: as §1
smiles,measurement,setting,value
"C[C@]12CC[C@@H]3c4ccc(O)cc4CC[C@H]3[C@@H]1CC[C@@]2(O)/C=C\c1ccc(N)cc1 [APVE2, 17α-20Z-21-[(4-amino)phenyl]-19-norpregna-1,3,5(10),20-tetraene-3,17β-diol]",EC50,"ER-α; fluorescence polarization, 25° C., 2 hours",365 nM
same,ER-α % RBA,ER-α; ratio of EC50 values as compared to E2,0.87%
same,MCF-7 % Cell#,MCF-7,25%
same,decrease in cell number,"DU145; DU145, 5 days of treatment at 1 μM",92±0.9%
same,EC50,"DU145; Homo sapiens, DU-145, 120 h, read-out: EC50 (cell death, MTS)",16 nM
same,DU145 % Cell#,DU-145,10%

# From US20060025394A1, “Estradiol-related compounds and methods of use as anti-tumor agents” (priority 2003, published 2006)
